Assay results taken from article PMC9775191, “A Subset Screen of the Compounds Australia Scaffold Library Identifies 7-Acylaminodibenzoxazepinones as Potent and Selective Hits for Anti-Giardia Drug Discovery” (Biomedicines, 2022).

Tested on: G. duodenalis BRIS/91/HEPU/1279
Assay: Primary Giardia screen at 10 µM (live-cell imaging, automated counting)
Format: cell-based, Giardia duodenalis
Details: for % Inhibition n=1 48h / % Inhibition n=1 24h: first singlicate assay; for % Inhibition n=2 24h / % Inhibition n=2 48h: re-assessment
Method in brief: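 Compounds were tested once each at 10 μM final (0.2% DMSO) in culture medium under 3% O2, 5% CO2 in N2. Growth was read at 24 and 48 h by live-cell imaging with automated counting, and inhibition expressed as percent growth versus 0.2% DMSO vehicle after media-only background subtraction.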

Row | SMILES | % Inhibition n=1 48h | other results
1 | O=C(Nc1ccccc1)N1CCCC1CN1CCCCC1 (stereo not drawn) [SN00772093] | 16.8% | –
2 | O=C(c1ccc(F)cc1)N1CCc2[nH]nc(C(=O)N3CCN(c4ccc(F)cc4)CC3)c2C1 [SN00802630] | 0.9% | –
3 | O=C(CCN1CCC(c2n[nH]c(C3CC3)n2)CC1)Nc1ccccc1 [SN00772586] | 28.6% | –
4 | Cc1nc(CN2CCN(C(=O)c3c(C)c(C)n[nH]c3=O)CC2)cs1 [SN00780594] | 0.0% | –
5 | CCOc1ccc(N/C(=N\S(C)(=O)=O)Nc2cc(C)c(Cl)cc2OC)cc1 [SN00795110] | 18.1% | –
6 | Cc1ccc(C)c(NC(=O)N2CCC(c3c[nH]c4ncccc34)CC2)c1 [SN00780701] | 0.0% | –
7 | Cn1ncc2c(NC3CCN(Cc4ccncc4)CC3)ncnc21 [SN00771916] | 0.0% | –
8 | O=C(NCCCN1CCCCC1)c1cc(-c2cccs2)nc2ccccc12 [SN00784290] | 13.3% | –
9 | CC1CCN(CCCNC(=O)c2ccc(-c3nc(-c4ccccc4)no3)cc2)CC1 [SN00795676] | 23.6% | –
10 | COc1ccc(S(=O)(=O)N(C)c2ccsc2C(=O)NCCC(C)C)cc1 [SN00797030] | 10.4% | –
11 | c1ccc(-c2nnc(CN3CCn4c(nnc4C4CC4)C3)o2)cc1 [SN00773167] | 0.0% | –
12 | Cc1ccc(S(=O)(=O)NC(C)c2nc(-c3cccc(C(=O)N4CCCC4)c3)no2)cc1 (stereo not drawn) [SN00789753] | 5.7% | –
13 | COc1ccc(CC(=O)N2CCN(Cc3nc4cc(C(=O)N5CCCC5)ccc4n3C)CC2)cc1 [SN00795130] | 13.8% | –
14 | CN(C)CC1CN(S(=O)(=O)C2CC2)CC12CCOCC2 (stereo not drawn) [SN00801268] | 16.1% | –
15 | CCOc1cc(F)ccc1NC(=O)N1CCCC(N2CCCC2=O)C1 (stereo not drawn) [SN00782090] | 7.0% | –
16 | CCOc1cccc(CC(=O)Nc2ccc3c(c2)C(=O)N(C)C2=NCCN23)c1OCC [SN00789358] | 35.6% | –
17 | Cc1ccc(N2CC(C(=O)N3CCCC3c3nc(-c4cccc(C)c4)no3)CC2=O)cc1 (stereo not drawn) [SN00797413] | 0.0% | –
18 | COc1ccccc1OC(C)C(=O)N1N=C2CCCCC2C1(O)C(F)(F)F (stereo not drawn) [SN00786959] | 13.1% | –
19 | CC(=O)c1ccc(Nc2ncnc3c2c(C)c(C)n3-c2ccccc2)cc1 [SN00789011] | 48.7% | –
20 | CC(=O)c1cccc(NC(=O)CN2CCC(c3nc(-c4ccccc4)no3)CC2)c1 [SN00799373] | 0.0% | –
21 | O=C(NC1CCCCCC1)c1cc2cn(C3CC3)cc2s1 [SN00802023] | 43.4% | Average % Inhibition 24h: 1.8%; % Inhibition n=1 24h: 3.6%; % Inhibition n=2 24h: 0.0%; Average % Inhibition 48h: 46.9%; % Inhibition n=2 48h: 50.4%
22 | CCn1cc(CN2CCC(OCc3nc(C4CC4)no3)CC2)cn1 [SN00801138] | 0.0% | –
23 | CCn1c(Cn2cccn2)nc2cc(NC(C)=O)ccc21 [SN00786137] | 11.6% | –
24 | CCCCS(=O)(=O)N1CCC(c2nnnn2-c2ccc(C)cc2)CC1 [SN00785962] | 0.0% | –
25 | CN(Cc1ccccc1)c1c2c(nc3nncn13)CCC2 [SN00785855] | 14.3% | –
26 | CCOC(=O)c1sc2ncnc(Nc3cn[nH]c3)c2c1C [SN00777183] | 42.7% | Average % Inhibition 24h: 0.0%; % Inhibition n=1 24h: 0.1%; % Inhibition n=2 24h: 0.0%; Average % Inhibition 48h: 30.8%; % Inhibition n=2 48h: 18.9%
27 | CCCn1cc(S(=O)(=O)c2ccc(Cl)cc2)c(=O)c2cc(F)c(N3CCOCC3)cc21 [SN00787800] | 0.0% | –
28 | COc1ccc(NC(=O)C2CCn3c(nc4ccccc43)C2)cc1Cl (stereo not drawn) [SN00789545] | 0.0% | –

Row | SMILES | % Inhibition n=1 48h | other results
29 | O=c1c2cccnc2n(Cc2cc(=O)n3ccccc3n2)c(=O)n1CCc1ccccc1 [SN00784337] | 7.3% | –
30 | CCOCCn1c(N2CCCCC2)nc(C)cc1=O [SN00799709] | 33.8% | –
31 | Cc1cc(-c2csc(S(=O)(=O)Nc3ccc(Cl)c(C(F)(F)F)c3)c2)on1 [SN00797257] | 0.0% | –
32 | CN(Cc1ccccc1)C(=O)c1cccc2c1CCN2C(=O)Nc1ccccc1 [SN00799558] | 0.0% | –
33 | CCC(=O)N1CCCC1C1CCCN1Cc1cn2c(C)cccc2n1 (stereo not drawn) [SN00777763] | 16.6% | –
34 | CCc1ccc(NC(=O)N2CCc3c(c(-c4nc(C)no4)nn3C)C2)cc1 [SN00796748] | 19.4% | –
35 | Cc1cccc(NC(=O)N2CCN(c3nc(C)cc(N4CCN(C)CC4)n3)CC2)c1 [SN00793530] | 17.4% | –
36 | Cc1nsc(N2CCCN(C(=O)NCc3ccccc3C)CC2)n1 [SN00782653] | 0.0% | –
37 | CCCNC1=C(C(=O)Nc2ccc(F)cc2)S(=O)(=O)c2ccccc21 [SN00794224] | 46.5% | –
38 | CCn1c(=O)c(N2CCCC(C(=O)NCCc3c[nH]c4ccccc34)C2)nc2ccccc21 (stereo not drawn) [SN00790077] | 9.8% | –
39 | O=S(=O)(c1ccc(-c2cnc(C3CC3)o2)cc1)N1CCCCC1 [SN00792043] | 8.3% | –
40 | CN(C)C(=O)Cc1nc(CN2CCc3c(ncn3C)C2)cs1 [SN00781984] | 0.0% | –
41 | CN1C(=O)c2cc(C(=O)NCCCc3ccccc3)nn2CC1(C)C(=O)NC1CCCC1 (stereo not drawn) [SN00788236] | 0.6% | –
42 | CCOC(=O)c1csc(-n2nc(CC(C)C)cc2C(F)(F)F)n1 [SN00802831] | 29.0% | –
43 | COc1ccc(CCNC(=O)C2c3ccccc3C(=O)N2Cc2ccc(C)cc2)cc1OC (stereo not drawn) [SN00794542] | 6.3% | –
44 | COc1ccc(CNC(=O)c2[nH]c3cc(C)sc3c2CN2CCCC2)cc1 [SN00798517] | 35.5% | –
45 | Cn1ncc2c(=O)[nH]c(CN3CCN(c4cnccn4)CC3)nc21 [SN00807797] | 0.0% | –
46 | Cc1ccc(CNC(=O)N2CCN(C3=CC4=NCC(C)N4C=N3)CC2)cc1 (stereo not drawn) [SN00800883] | 11.9% | –
47 | Cc1ccc(S(=O)(=O)N2CCC[C@H]2C(=O)N2CCN(CC(=O)Nc3cccc(C)c3C)CC2)cc1 [SN00772546] | 7.6% | –
48 | CCCNS(=O)(=O)c1cc(-c2nc(-c3cccc(Cl)c3)cs2)n(C)c1C [SN00795169] | 47.2% | Average % Inhibition 24h: 21.9%; % Inhibition n=1 24h: 31.8%; % Inhibition n=2 24h: 12.0%; Average % Inhibition 48h: 32.8%; % Inhibition n=2 48h: 18.5%
49 | CC(c1nnc(-c2cccs2)o1)N1CCc2cncnc2C1 (stereo not drawn) [SN00783267] | 12.9% | –
50 | CCC(C)NC(=O)C1CCN(c2cnc(N3CCSCC3)nc2)CC1 (stereo not drawn) [SN00798903] | 12.6% | –
51 | O=C(Nc1cccc(F)c1)c1nnc(C2CCCN2C(=O)Nc2cccc(C(F)(F)F)c2)s1 (stereo not drawn) [SN00790473] | 8.5% | –
52 | COc1ccccc1N1CCN(C(=O)c2ccc3[nH]c(C)c(C)c3c2)CC1 [SN00775216] | 36.6% | –
53 | Fc1ccc(C2=NC(c3cccs3)=Nc3cc(Cl)ccc3N2)cc1 [SN00785914] | 0.0% | –
54 | CCOC(=O)c1ccc(Nc2c(-c3ccccc3)nc3[nH]cnn23)cc1 [SN00794007] | 0.0% | –
55 | CCCNC(=O)N1CCN(c2nc3ccccc3n3cccc23)CC1 [SN00793136] | 44.8% | Average % Inhibition 24h: 3.9%; % Inhibition n=1 24h: 7.8%; % Inhibition n=2 24h: 0.0%; Average % Inhibition 48h: 22.4%; % Inhibition n=2 48h: 0.0%
